Key:
[1] = Human plasma protein binding; format: in vitro ADME; details: human, human plasma
Human plasma protein = Human plasma protein binding; format: in vitro ADME; details: PBPK input
[2] = phase I FIH study ref 7; cited from earlier work
CYP3A4 [3] = molecular target: T1, CYP3A4 (Homo sapiens, UniProt P08684); test: Metabolic stability in recombinant human CYP3A4 with NADPH; format: in vitro ADME; details: CYP3A4 share of CYP metabolism, scaled by abundance and ISEF
CYP2B6 [4] = molecular target: T2, CYP2B6 (Homo sapiens, UniProt P20813); details: main text summary
T2 sequence (P20813 1-491): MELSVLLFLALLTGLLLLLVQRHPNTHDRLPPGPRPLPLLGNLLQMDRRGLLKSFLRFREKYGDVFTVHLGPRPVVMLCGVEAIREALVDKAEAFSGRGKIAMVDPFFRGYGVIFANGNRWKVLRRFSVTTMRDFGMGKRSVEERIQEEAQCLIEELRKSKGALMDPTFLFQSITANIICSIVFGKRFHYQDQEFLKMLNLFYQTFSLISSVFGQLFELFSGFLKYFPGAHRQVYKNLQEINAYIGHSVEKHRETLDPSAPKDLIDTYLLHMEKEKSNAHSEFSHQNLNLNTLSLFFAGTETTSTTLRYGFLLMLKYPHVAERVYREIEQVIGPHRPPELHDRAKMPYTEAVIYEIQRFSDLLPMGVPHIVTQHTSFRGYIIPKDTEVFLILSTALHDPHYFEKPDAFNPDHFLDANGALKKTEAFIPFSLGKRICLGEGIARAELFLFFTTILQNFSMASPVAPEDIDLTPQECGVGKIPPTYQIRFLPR

CYP1A2 [5] = molecular target: T3, CYP1A2 (Homo sapiens, UniProt P05177); test: biochemical
T3 sequence (P05177 1-516): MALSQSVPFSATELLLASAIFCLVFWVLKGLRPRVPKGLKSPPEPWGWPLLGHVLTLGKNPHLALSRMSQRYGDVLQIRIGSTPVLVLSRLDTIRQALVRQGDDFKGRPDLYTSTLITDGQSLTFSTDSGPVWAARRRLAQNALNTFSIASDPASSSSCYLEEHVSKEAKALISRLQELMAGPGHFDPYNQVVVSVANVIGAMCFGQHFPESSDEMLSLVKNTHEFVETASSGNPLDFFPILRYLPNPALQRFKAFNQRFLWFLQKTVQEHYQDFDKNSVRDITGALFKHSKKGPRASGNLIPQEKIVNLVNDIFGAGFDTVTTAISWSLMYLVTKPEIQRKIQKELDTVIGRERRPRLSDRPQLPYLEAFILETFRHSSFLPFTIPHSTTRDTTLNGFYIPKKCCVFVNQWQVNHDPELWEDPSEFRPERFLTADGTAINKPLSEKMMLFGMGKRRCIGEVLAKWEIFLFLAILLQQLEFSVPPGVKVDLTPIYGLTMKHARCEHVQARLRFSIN

CYP2C9 = CYP2C9 (Homo sapiens, UniProt P11712); test: Metabolic stability in recombinant human CYP2C9 with NADPH; format: in vitro ADME; details: CYP2C9 share of CYP metabolism, scaled by abundance and ISEF
[6] = radiolabeled pomotrelvir ref 16; cited from earlier work
recombinant human CYP3A5 = recombinant human CYP3A5 (Homo sapiens, UniProt P20815); test: Metabolic stability in recombinant human CYP3A5 with NADPH; format: in vitro ADME; details: CYP3A5 share of CYP metabolism, scaled by abundance and ISEF
CYP3A4 [7] = molecular target: T1, CYP3A4; test: CYP3A4 inhibition in human liver microsomes; format: in vitro ADME
PBPK model parameters = test: PBPK model parameters; set-up: species or system human
BCRP = test: MDCK‐BCRP apparent permeability; format: in vitro ADME, canine; details: dog
[8] = test system: Madin Darby canine kidney–breast cancer resistance protein (BCRP) cell lines; test: MDCK‐BCRP apparent permeability; format: in vitro ADME; details: MDCK‐BCRP cell line
CYP1A2 [9] = molecular target: T3, CYP1A2; test: Metabolic stability in recombinant human CYP1A2 with NADPH; format: in vitro ADME; details: CYP1A2 share of CYP metabolism, scaled by abundance and ISEF
CYP2C8 = molecular target: T4, CYP2C8 (Homo sapiens, UniProt P10632); test: Metabolic stability in recombinant human CYP2C8 with NADPH; format: in vitro ADME; details: CYP2C8 share of CYP metabolism, scaled by abundance and ISEF
T4 sequence (P10632 1-490): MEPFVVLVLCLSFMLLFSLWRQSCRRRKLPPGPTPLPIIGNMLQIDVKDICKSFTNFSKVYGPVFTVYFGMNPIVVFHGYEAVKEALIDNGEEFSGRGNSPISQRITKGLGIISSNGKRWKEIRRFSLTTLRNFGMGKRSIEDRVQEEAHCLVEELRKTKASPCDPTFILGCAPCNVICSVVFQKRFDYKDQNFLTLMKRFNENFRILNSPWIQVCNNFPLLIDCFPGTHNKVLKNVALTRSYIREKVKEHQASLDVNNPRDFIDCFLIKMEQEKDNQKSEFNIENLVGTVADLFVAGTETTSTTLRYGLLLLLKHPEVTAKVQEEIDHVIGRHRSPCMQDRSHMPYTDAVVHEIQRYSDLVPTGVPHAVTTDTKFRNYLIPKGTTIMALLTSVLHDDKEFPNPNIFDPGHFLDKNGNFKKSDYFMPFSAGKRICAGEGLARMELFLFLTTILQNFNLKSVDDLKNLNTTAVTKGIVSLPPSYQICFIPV

Blood‐to‐plasma ratio = format: in vitro ADME; details: PBPK input
CYP2B6 [10] = test: in vitro; details: human
recombinant human CYP2E1 = recombinant human CYP2E1 (Homo sapiens, UniProt P05181); test: Metabolic stability in recombinant human CYP2E1 with NADPH; format: in vitro ADME; details: CYP2E1 share of CYP metabolism, scaled by abundance and ISEF
CYP1A2 [11] = molecular target: T3, CYP1A2; details: main text summary

T1 sequence (P08684 whole entry): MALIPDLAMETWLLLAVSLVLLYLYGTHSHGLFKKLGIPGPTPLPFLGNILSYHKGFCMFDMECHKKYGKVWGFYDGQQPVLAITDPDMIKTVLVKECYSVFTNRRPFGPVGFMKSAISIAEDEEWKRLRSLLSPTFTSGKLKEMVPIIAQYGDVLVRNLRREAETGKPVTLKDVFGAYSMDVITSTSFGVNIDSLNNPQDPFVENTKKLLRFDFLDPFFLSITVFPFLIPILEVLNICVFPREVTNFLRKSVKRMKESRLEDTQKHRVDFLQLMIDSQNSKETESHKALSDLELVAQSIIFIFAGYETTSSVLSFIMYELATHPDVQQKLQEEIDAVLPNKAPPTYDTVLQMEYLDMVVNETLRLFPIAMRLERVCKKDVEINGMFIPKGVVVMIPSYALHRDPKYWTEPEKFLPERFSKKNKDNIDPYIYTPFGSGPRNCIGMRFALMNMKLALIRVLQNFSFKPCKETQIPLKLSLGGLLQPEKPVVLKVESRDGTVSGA
recombinant human CYP2E1, sequence (P05181 whole entry): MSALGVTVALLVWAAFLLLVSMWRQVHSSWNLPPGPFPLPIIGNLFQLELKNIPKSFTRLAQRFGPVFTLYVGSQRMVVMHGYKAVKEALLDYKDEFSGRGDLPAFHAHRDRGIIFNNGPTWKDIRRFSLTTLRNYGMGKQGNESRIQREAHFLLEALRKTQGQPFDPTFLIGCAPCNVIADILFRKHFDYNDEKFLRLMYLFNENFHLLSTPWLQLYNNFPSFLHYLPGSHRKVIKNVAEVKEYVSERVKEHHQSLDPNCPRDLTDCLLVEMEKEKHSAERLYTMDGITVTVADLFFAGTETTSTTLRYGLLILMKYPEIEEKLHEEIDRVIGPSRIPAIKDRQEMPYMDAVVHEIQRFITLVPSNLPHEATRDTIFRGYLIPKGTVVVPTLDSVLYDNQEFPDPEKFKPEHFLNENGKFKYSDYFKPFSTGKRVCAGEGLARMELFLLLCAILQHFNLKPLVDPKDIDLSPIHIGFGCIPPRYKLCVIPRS
CYP2C9, sequence (P11712 whole entry): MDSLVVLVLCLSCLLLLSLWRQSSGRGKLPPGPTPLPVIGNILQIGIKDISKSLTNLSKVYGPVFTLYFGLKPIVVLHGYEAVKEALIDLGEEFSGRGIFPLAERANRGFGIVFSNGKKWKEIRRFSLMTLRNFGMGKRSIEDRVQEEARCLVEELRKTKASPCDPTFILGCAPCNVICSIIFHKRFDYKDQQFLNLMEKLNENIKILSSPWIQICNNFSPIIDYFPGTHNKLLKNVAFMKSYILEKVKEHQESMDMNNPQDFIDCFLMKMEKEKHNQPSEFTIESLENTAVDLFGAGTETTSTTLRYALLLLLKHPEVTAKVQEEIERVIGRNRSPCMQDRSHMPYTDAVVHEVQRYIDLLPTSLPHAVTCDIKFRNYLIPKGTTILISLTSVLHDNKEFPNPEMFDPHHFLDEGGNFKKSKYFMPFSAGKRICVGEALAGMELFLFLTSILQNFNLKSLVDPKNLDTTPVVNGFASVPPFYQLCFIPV
recombinant human CYP3A5, sequence (P20815 whole entry): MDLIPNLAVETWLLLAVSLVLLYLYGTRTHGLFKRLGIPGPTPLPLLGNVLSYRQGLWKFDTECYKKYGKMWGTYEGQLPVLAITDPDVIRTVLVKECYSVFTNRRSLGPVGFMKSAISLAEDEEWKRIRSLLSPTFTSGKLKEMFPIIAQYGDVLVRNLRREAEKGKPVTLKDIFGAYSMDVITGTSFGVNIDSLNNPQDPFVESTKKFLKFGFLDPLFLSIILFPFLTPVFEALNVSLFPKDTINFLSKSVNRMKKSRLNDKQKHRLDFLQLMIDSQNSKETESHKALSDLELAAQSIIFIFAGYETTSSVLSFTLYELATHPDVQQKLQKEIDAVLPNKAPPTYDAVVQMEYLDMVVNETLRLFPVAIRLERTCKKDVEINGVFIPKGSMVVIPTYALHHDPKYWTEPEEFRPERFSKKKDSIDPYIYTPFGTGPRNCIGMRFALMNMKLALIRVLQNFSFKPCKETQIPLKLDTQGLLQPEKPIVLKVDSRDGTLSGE

N#C[C@H](C[C@@H]1CCCNC1=O)NC(=O)[C@H](CC1CC1)NC(=O)c1cc2cccc(Cl)c2[nH]1 [Pomotrelvir, pomotrelvir]
fraction unbound [1]: 0.044 | Main binding protein (Human plasma protein): HSA | oral bioavailability [2]: good | tolerability [2]: well tolerated | Relative Contribution (fm) (CYP3A4 [3]): 88% | inhibitory effect on CYP2B6 in vitro (in words) (CYP2B6 [4]): No inhibitory effect | Ki (CYP1A2 [5]): 9.04 µM | Relative Contribution (fm) (CYP2C9): negligible | major route of metabolism and clearance [6]: nonhepatic hydrolysis | urinary excretion of intact drug [6]: Minimal | Relative Contribution (fm) (recombinant human CYP3A5): negligible | Ki (CYP3A4 [7]): 34.7 µM | inhibitory effect on CYP3A4 in vitro (in words) (CYP3A4 [7]; main text summary): time‐dependent inhibition (TDI) | fmCYP3A4 (PBPK model parameters; PBPK input, set to match the ritonavir DDI study): 0.25 | CYP3A4 CLint (unbound) (PBPK model parameters; retrograde model from CL/F): 0.376 µL/min/pmol | fmCYP3A4 (PBPK model parameters; value to match the ritonavir DDI study): 25% | Papp (BCRP): 1.01 ×10⁻⁶ cm/s | efflux ratio [8]: large | Relative Contribution (fm) (CYP1A2 [9]): negligible | Relative Contribution (fm) (CYP2C8): 11% | B:P (Blood‐to‐plasma ratio): 0.93 | contribution of nonhepatic, presystemic hydrolysis to apparent clearance (following oral dosing, thought to contribute): ~ 50% | CL/F (mean apparent oral clearance) (oral dose of 300 mg administered with food (FIH study)): 33.19 L/h | EC50 at 72 h (CYP2B6 [10]): 4.84 µM | Relative Contribution (fm) (recombinant human CYP2E1): negligible | inhibitory effect on CYP1A2 in vitro (in words) (CYP1A2 [11]): weak to moderate inhibition
